Measured values published in ChEMBL document CHEMBL3352549, “Discovery, biological evaluation, and crystal structure of a novel nanomolar selective butyrylcholinesterase inhibitor” (J Med Chem, 2014).

Experiments:
Cholinesterase [1] = target: T1, Cholinesterase (Homo sapiens, UniProt P06276); test: Inhibition of recombinant human BChE at 10 uM by Ellman method
SH-SY5Y [2] = test: Neuroprotective activity in human SH-SY5Y cells assessed as inhibition of amyloid beta(1-42)-induced neurotoxicity at 0.1 to 10 uM incubated for 48 hrs by MTS assay; format: functional, cell-based
[3] = Cytotoxicity against human SH-SY5Y cells assessed as reduction in cell viability at 10 uM after 48 hrs by MTS assay; format: cell-based
SH-SY5Y [4] = test: Neuroprotective activity in human SH-SY5Y cells assessed as inhibition of amyloid beta(1-42)-induced neurotoxicity at 0.1 to 10 uM incubated for 48 hrs by LDH release assay; format: functional, cell-based
[5] = target: Cholinesterase (Mus musculus) (UniProt Q03311); test: Inhibition of recombinant mouse BChE at 10 uM by Ellman method
Cholinesterase [6] = target: T1, Cholinesterase; test: Inhibition of recombinant human BChE at 50 nM by stopped flow apparatus method
Acetylcholinesterase = target: T2, Acetylcholinesterase (Mus musculus, UniProt P21836); test: Inhibition of recombinant mouse AChE by Ellman method
T2 sequence (P21836 whole entry): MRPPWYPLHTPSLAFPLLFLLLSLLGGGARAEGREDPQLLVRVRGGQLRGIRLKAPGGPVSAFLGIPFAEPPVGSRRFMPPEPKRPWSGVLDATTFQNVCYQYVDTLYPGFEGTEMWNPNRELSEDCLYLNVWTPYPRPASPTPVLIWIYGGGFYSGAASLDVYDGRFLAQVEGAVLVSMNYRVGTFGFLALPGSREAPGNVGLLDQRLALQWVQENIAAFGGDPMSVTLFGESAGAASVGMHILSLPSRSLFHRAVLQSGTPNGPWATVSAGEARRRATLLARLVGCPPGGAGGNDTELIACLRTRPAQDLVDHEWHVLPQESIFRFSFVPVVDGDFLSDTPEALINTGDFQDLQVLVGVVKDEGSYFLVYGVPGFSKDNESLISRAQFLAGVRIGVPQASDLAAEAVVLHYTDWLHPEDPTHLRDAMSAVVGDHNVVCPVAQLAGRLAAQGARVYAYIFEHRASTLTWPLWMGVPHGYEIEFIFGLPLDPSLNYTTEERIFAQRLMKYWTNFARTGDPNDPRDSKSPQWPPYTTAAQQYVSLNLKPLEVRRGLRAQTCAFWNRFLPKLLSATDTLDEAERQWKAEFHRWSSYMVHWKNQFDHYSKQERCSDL

Cholinesterase [7] = target: T1, Cholinesterase
Description: Inhibition of recombinant human BChE by Ellman method

[8] = target: T3, Acetylcholinesterase (Mus musculus) (UniProt P21836); test: Inhibition of recombinant mouse AChE assessed as residual activity at 10 uM by Ellman method
T3 sequence (whole entry): T2 sequence (P21836 whole entry)

T1 sequence (P06276 whole entry): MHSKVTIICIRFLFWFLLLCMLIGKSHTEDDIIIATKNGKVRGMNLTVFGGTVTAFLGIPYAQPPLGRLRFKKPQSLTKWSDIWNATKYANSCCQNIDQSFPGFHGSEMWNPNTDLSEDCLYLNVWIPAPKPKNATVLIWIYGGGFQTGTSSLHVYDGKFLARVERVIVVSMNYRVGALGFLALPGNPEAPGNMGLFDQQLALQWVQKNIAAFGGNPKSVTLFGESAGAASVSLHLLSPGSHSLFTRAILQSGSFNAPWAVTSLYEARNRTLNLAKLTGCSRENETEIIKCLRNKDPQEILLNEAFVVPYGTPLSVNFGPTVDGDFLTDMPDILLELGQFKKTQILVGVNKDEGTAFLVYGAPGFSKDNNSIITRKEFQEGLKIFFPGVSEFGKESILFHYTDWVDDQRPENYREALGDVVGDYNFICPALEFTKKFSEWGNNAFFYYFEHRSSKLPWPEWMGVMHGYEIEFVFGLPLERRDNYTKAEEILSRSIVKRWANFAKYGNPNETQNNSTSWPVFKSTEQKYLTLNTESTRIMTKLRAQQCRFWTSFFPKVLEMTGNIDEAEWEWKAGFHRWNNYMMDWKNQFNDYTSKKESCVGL
Chain of Cholinesterase (Mus musculus) (Q03311 whole entry): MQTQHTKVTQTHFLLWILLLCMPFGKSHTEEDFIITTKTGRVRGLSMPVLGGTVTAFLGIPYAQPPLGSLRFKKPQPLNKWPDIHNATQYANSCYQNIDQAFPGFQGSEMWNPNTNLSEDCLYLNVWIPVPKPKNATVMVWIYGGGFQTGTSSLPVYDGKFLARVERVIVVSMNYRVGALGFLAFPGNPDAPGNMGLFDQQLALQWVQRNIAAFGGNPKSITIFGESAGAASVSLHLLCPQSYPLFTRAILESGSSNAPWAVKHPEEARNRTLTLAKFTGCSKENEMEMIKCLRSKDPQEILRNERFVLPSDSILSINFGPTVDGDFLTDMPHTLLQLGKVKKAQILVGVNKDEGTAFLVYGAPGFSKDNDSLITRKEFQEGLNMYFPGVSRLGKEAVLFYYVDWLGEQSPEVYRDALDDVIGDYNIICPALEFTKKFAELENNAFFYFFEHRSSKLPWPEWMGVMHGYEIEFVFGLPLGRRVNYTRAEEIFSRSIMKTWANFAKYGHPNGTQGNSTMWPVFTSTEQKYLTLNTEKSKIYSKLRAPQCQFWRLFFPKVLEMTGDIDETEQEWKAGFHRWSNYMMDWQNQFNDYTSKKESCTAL

COCCN(CC1CCCN(C2Cc3ccccc3C2)C1)C(=O)c1ccc2ccccc2c1 (racemic)
inhibition (Cholinesterase [1]): > 50%
Activity (SH-SY5Y [2]): Dose-dependent effect
Activity [3]: Non-toxic
Activity (SH-SY5Y [4]): Dose-dependent effect
inhibition [5]: > 50%

COCCN(C[C@H]1CCCN(C2Cc3ccccc3C2)C1)C(=O)c1ccc2ccccc2c1
Ki (Cholinesterase [6]): 0.027 µM
IC50 (Acetylcholinesterase; read-out: IC50): 110 µM
IC50 (Cholinesterase [7]): 0.166 µM

CCn1nc(C(=O)N2CCCC2)c2c1CCC(NCCc1nc(-c3ccccc3)cs1)C2 (centres undefined)
inhibition (Cholinesterase [1]): > 50%
IC50 (Acetylcholinesterase): Not Active
IC50 (Cholinesterase [7]): 2.15 µM
inhibition [5]: > 50%

CC(c1nc2ccccc2s1)N(C)C(=O)CN1CCCC1c1ccc2c(c1)OCCCO2 (centres undefined)
inhibition (Cholinesterase [1]): > 50%
Activity [8]: 94%
IC50 (Cholinesterase [7]): 1.36 µM
inhibition [5]: > 50%

COCCN(C[C@@H]1CCCN(C2Cc3ccccc3C2)C1)C(=O)c1ccc2ccccc2c1
Ki (Cholinesterase [6]): 0.00271 µM
IC50 (Acetylcholinesterase; read-out: IC50): 101 µM
IC50 (Cholinesterase [7]): 0.013 µM
